The values that follow come from patent US11814367B2, “Inhibitors of glycogen synthase 1 (GYS1) and methods of use thereof” (Maze Therapeutics, Inc., priority 2021, dated 2023).

The term pIC50 denotes −log10 of the IC50, conventionally taken in molar units.

pIC50: −log10 of the molar value. A value given as a limit tells only on which side of the number the result lay.

Chain of hGYS1 enzyme (recombinant hGYS1/GN1 protein) (P13807 whole entry): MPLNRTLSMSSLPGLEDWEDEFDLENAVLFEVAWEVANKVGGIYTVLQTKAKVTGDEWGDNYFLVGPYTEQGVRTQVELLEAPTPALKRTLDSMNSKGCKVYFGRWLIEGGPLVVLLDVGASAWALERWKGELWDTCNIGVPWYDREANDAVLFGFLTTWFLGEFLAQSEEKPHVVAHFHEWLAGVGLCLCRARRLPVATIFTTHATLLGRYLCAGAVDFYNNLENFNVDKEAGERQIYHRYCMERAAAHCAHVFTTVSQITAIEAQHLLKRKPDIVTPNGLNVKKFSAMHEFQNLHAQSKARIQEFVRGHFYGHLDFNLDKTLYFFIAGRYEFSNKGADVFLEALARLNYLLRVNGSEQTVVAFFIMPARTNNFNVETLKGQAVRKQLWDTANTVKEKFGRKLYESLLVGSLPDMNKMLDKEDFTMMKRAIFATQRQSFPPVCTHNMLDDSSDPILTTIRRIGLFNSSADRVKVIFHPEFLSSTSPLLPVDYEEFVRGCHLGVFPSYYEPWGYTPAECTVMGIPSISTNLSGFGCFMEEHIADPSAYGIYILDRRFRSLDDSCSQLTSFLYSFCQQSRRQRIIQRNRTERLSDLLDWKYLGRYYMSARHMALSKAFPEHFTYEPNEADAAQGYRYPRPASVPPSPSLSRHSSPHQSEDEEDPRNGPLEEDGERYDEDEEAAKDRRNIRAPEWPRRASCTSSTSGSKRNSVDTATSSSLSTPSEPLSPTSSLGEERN
Chain of hGYS1 enzyme (recombinant hGYS1/GN1 protein) (P46976 whole entry partner): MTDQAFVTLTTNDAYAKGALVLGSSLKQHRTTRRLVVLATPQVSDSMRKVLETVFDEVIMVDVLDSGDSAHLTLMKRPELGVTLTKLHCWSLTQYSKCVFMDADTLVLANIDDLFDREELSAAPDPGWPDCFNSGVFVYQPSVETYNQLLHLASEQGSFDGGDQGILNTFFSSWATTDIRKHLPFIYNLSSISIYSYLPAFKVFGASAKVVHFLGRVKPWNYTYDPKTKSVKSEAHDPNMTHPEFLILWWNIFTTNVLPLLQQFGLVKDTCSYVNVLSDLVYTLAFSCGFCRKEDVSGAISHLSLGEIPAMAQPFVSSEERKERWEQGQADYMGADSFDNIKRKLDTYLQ

The test has as its target hGYS1 enzyme (recombinant hGYS1/GN1 protein) (Homo sapiens (Human), UniProt P13807). The experiment in a line: GYS1 coupled enzyme assay (PK/LDH). The class given is biochemical. The conditions noted are these: hGYS1/GN1 50 nM, UDP-Glucose 0.8 mM, G6P 1 mM; geometric mean of at least 2 runs.
Regarding `CC(=O)N1C[C@H](F)C[C@H]1C(=O)N[C@H](c1cccc(-c2nnc[nH]2)c1)c1ccc(C(C)C)c(F)n1` (single isomer, unassigned) [Compound 689, (2S,4R)—N—((R) or (S)-(3-(4H-1,2,4-triazol-3-yl)phenyl)(6-fluoro-5-isopropylpyridin-2-yl)methyl)-1-acetyl-4-fluoropyrrolidine-2-carboxamide], the pIC50 was less than 5.00. As for `Cc1nc(CC(=O)N2C[C@H](F)C[C@H]2C(=O)N[C@@H](c2ccccc2)c2ccc(C3CC3)c(F)n2)oc1C` [Compound 761, (2S,4R)-N-[(S)-(5-cyclopropyl-6-fluoropyridin-2-yl)(phenyl)methyl]-1-[2-(4,5-dimethyl-1,3-oxazol-2-yl)acetyl]-4-fluoropyrrolidine-2-carboxamide], the pIC50 is 7.26. `CC(=O)NCC(=O)N1CCC[C@H]1C(=O)NC(c1ccc(C2CC2)c(F)c1)c1cccc2[nH]c(=O)oc12` (single isomer, unassigned) [Compound 643, (2S)-N-[(R) or (S)-(4-cyclopropyl-3-fluorophenyl)(2-oxo-2,3-dihydro-1,3-benzoxazol-7-yl)methyl]-1-(2-acetamidoacetyl) pyrrolidine-2-carboxamide]: the pIC50 was 5.66. Then `CC(=O)Nc1cc(C(=O)N2C[C@H](F)C[C@H]2C(=O)N[C@@H](c2ccccc2)c2ccc(C(C)C)cc2)ccn1` [Compound 72, (2S,4R)-1-(2-acetamidopyridine-4-carbonyl)-4-fluoro-N-[(S)-phenyl[4-(propan-2-yl)phenyl]methyl]pyrrolidine-2-carboxamide], with 6.33; and `CC(C)CNC(=O)C(=O)N1C[C@H](F)C[C@H]1C(=O)N[C@@H](c1ccccc1)c1ccc(C(C)C)cc1` [Compound 111, (2S,4R)-4-fluoro-1-{[(2-methylpropyl)carbamoyl]carbonyl}-N-[(S)-phenyl[4-(propan-2-yl)phenyl]methyl]pyrrolidine-2-carboxamide], with 5.96; and `Cc1ncncc1C(=O)N1C[C@H](F)C[C@H]1C(=O)N[C@@H](c1ccccc1)c1ccc(C(C)C)cc1` [Compound 30, (2S,4R)-4-fluoro-1-(4-methylpyrimidine-5-carbonyl)-N-[(S)-phenyl[4-(propan-2-yl)phenyl]methyl]pyrrolidine-2-carboxamide], with 6.02. As to `CC(C)c1ccc([C@@H](NC(=O)[C@@H]2C[C@@H](F)CN2C(=O)C(=O)N(C)C)c2ccccc2)cc1` [Compound 115, (2S,4R)-1-[(dimethylcarbamoyl)carbonyl]-4-fluoro-N-[(S)-phenyl[4-(propan-2-yl)phenyl]methyl]pyrrolidine-2-carboxamide], the negative logarithm of the IC50 (pIC50) was 6.31. Then `CC(C)c1cnc(C(NC(=O)[C@@H]2C[C@@H](F)CN2C(=O)Cc2cnn[nH]2)c2ccccc2)cc1C(F)F` (single isomer, unassigned) [Compound 606, (2S,4R)-N-[(S) or (R)-[4-(difluoromethyl)-5-(propan-2-yl)pyridin-2-yl](phenyl)methyl]-4-fluoro-1-[2-(1H-1,2,3-triazol-5-yl)acetyl]pyrrolidine-2-carboxamide], with 5.95; and `CO[C@H](C)[C@@H](C(=O)N1C[C@H](F)C[C@H]1C(=O)N[C@@H](c1ccccc1)c1ccc(C(C)C)cc1)N(C)C(C)=O` [Compound 5, (2S,4R)-4-fluoro-1-[(2S,3R)-3-methoxy-2-(N-methylacetamido)butanoyl]-N-[(S)-phenyl[4-(propan-2-yl)phenyl]methyl]pyrrolidine-2-carboxamide], with 6.45. As for `CC(C)c1ccc([C@@H](NC(=O)[C@@H]2C[C@@H](F)CN2C(=O)c2cccc(-n3cncn3)c2)c2ccccc2)cc1` [Compound 123, (2S,4R)-4-fluoro-N-[(S)-phenyl[4-(propan-2-yl)phenyl]methyl]-1-[3-(1H-1,2,4-triazol-1-yl)benzoyl]pyrrolidine-2-carboxamide], the negative-log IC50 (pIC50) is 6.00. Then `CC(=O)N1C[C@H](F)C[C@H]1C(=O)NC(c1cccc(-n2cccn2)c1)c1ccc(C(C)C)c(F)n1` (single isomer, unassigned) [Compound 699, (2S,4R)-1-acetyl-4-fluoro-N-[(S) or (R)-[6-fluoro-5-(propan-2-yl)pyridin-2-yl][3-(1H-pyrazol-1-yl)phenyl]methyl] pyrrolidine-2-carboxamide], with 7.29. Then `CC(C)c1ccc([C@@H](NC(=O)[C@@H]2C[C@@H](F)CN2C(=O)c2cc(-c3ccncc3)[nH]n2)c2ccccc2)cc1` [Compound 78, (2S,4R)-4-fluoro-N-[(S)-phenyl[4-(propan-2-yl)phenyl]methyl]-1-[5-(pyridin-4-yl)-1H-pyrazole-3-carbonyl]pyrrolidine-2-carboxamide], with 6.02; and `CCc1nc(C(=O)N2C[C@H](F)C[C@H]2C(=O)N[C@@H](c2ccccc2)c2ccc(C(C)C)cc2)co1` [Compound 42, (2S,4R)-1-(2-ethyl-1,3-oxazole-4-carbonyl)-4-fluoro-N-[(S)-phenyl[4-(propan-2-yl)phenyl]methyl]pyrrolidine-2-carboxamide], with 6.31; and `C#CCCCCCC(=O)N1CCC[C@H]1C(=O)N[C@@H](c1ccccc1)c1ccc(C(C)C)cc1` [Compound 701, (2S)-1-(oct-7-ynoyl)-N-[(S)-phenyl[4-(propan-2-yl)phenyl]methyl]pyrrol-idine-2-carboxamide], with 6.35.

In the case of `CC(C)c1ccc(C(NC(=O)[C@@H]2C[C@@H](F)CN2C(=O)Cc2cnn[nH]2)c2ccnc(N)c2)cc1F` (single isomer, unassigned) [Compound 618, (2S,4R)-N-[(S) or (R)-(2-aminopyridin-4-yl)[3-fluoro-4-(propan-2-yl)phenyl]methyl]-4-fluoro-1-[2-(1H-1,2,3-triazol-5-yl)acetyl]pyrrolidine-2-carboxamide], the pIC50 is 5.82. Take `CC(=O)Nc1cccc([C@H](NC(=O)[C@@H]2C[C@@H](F)CN2C(=O)Cc2cn(C)nn2)c2ccc(C(C)C)cc2)c1` [Compound 649, (2S,4R)-N-[(R)-(3-acetamidophenyl) [4-(propan-2-yl)phenyl]methyl]-4-fluoro-1-[2-(1-methyl-1H-1,2,3-triazol-4-yl)acetyl]pyrrolidine-2-carboxamide]: the pIC50 is 6.32.

For the compound `CC(=O)N1CC2(CC(C(=O)N3C[C@H](F)C[C@H]3C(=O)N[C@@H](c3ccccc3)c3ccc(C(C)C)cc3)CO2)C1` (stereo partly drawn) [Compound 164, (2S,4R)-1-{2-acetyl-5-oxa-2-azaspiro[3.4]octane-7-carbonyl}-4-fluoro-N-[(S)-phenyl[4-(propan-2-yl)phenyl]methyl]pyrrolidine-2-carboxamide], the pIC50 was 6.33. Then `O=C(N[C@@H](c1ccccc1)c1ccc(C2CC2)c(F)n1)[C@@H]1C[C@@H](F)CN1C(=O)Cn1nncc1N1CCC1` [Compound 762, (2S,4R)-1-{2-[5-(azetidin-1-yl)-1H-1,2,3-triazol-1-yl]acetyl}-N-[(S)-(5-cyclopropyl-6-fluoropyridin-2-yl)(phenyl)methyl]-4-fluoropyrrolidine-2-carboxamide], with 7.57; and `CC(C)c1ccc(C(NC(=O)[C@@H]2C[C@@H](F)CN2C(=O)Cc2cnn[nH]2)c2ccncc2F)cc1F` (single isomer, unassigned) [Compound 619, (2S,4R)-4-fluoro-N-[(R) or (S)-[3-fluoro-4-(propan-2-yl)phenyl](3-fluoropyridin-4-yl)methyl]-1-[2-(1H-1,2,3-triazol-5-yl)acetyl]pyrrolidine-2-carboxamide], with 5.94. Then `O=C(NC(c1ccccc1)c1ccc(C2CCC2)c(F)c1)[C@@H]1C[C@@H](F)CN1C(=O)Cc1cnn[nH]1` (single isomer, unassigned) [Compound 673, (2S,4R)-N-[(R) or (S)-(4-cyclobutyl-3-fluorophenyl)(phenyl)methyl]-4-fluoro-1-[2-(1H-1,2,3-triazol-5-yl)acetyl]pyrrolidine-2-carboxamide], with 5.76; and `CC(C)c1ccc([C@H](NC(=O)[C@@H]2C[C@@H](F)CN2C(=O)Cc2nnn[nH]2)c2ccccc2)cc1F` [Compound 329, (2S,4R)-4-fluoro-N-[(R)-[3-fluoro-4-(propan-2-yl)phenyl](phenyl)methyl]-1-[2-(1H-1,2,3,4-tetrazol-5-yl)acetyl]pyrrolidine-2-carboxamide], with 6.47.

For `CC(C)c1ccc([C@@H](NC(=O)[C@@H]2C[C@@H](F)CN2C(=O)c2cnco2)c2ccccc2)cc1` [Compound 12, (2S,4R)-4-fluoro-1-(1,3-oxazole-5-carbonyl)-N-[(S)-phenyl[4-(propan-2-yl)phenyl]methyl]pyrrolidine-2-carboxamide], the pIC50 was 6.38.

As to `CC(C)c1ccc([C@H](NC(=O)[C@@H]2C[C@@H](F)CN2C(=O)Cc2cnn[nH]2)c2cccc(F)c2)cc1F` [Compound 647, (2S,4R)-4-fluoro-N-[(R)-[3-fluoro-4-(propan-2-yl)phenyl](3-fluorophenyl)methyl]-1-[2-(1H-1,2,3-triazol-5-yl)acetyl]pyrrolidine-2-carboxamide], the pIC50 is 5.78. Then `CC(C)COc1cc(C(=O)N2C[C@H](F)C[C@H]2C(=O)N[C@@H](c2ccccc2)c2ccc(C(C)C)cc2)ccn1` [Compound 705, (2S,4R)-4-fluoro-1-[2-(2-methylpropoxy)pyridine-4-carbonyl]-N-[(S)-phenyl[4-(propan-2-yl)phenyl]methyl]pyrrol-idine-2-carboxamide], with 5.76.

For the compound `CC(C)c1ccc([C@@H](NC(=O)[C@@H]2C[C@@H](F)CN2C(=O)Cn2nncc2N2CCC2)c2ccccc2)nc1` [Compound 715, (2S,4R)-1-{2-[5-(azetidin-1-yl)-1H-1,2,3-triazol-1-yl]acetyl}-4-fluoro-N-[(S)-phenyl[5-(propan-2-yl)pyridin-2-yl]methyl]pyrrolidine-2-carboxamide], the negative logarithm of the IC50 (pIC50) was 6.98.
